# “Also recorded” adds a separate entry of the source. Positions of bridges follow the written chain, without caps; N, C: chain ends. No end group written: not given here.
# Assays:
# Assay type in all cases: in vivo, human
# [1] = tested on: skin conditions of subjects; experiment: Skin-improving (cosmetic) effect of gel formulation applied to face
# Procedure: 4.1.1 Confirming Skin-Improving Effect (Comparing B Ring Gel Formulation to BNP Gel Formulation)
# The B ring gel formulation or BNP gel formulation was applied to subjects. The B ring gel formulation was applied on the right cheek or eye of each subject, the BNP gel formulation on the left cheek or eye, and changes in skin conditions were observed and compared (Table below). The changes in skin conditions were determined based on physical sensory evaluation by the subject and our objective observation as physicians.
# Table below summarizes examples in which B ring gel formulation was applied without applying two-sided. The changes in skin conditions were determined by similar method as described above.
# 4.1.2 Confirming Skin-Improving Effect (Comparing B Ring Gel Formulation to Gel Base)
# In order to examine the presence or absence of the contribution by the gel base to the effects of B ring gel formulation and BNP gel formulation, three subjects were administered B ring gel formulation on their right face and the gel base on the left, and changes in skin conditions on the subject's faces were observed (Table below).
# [2] = tested on: symptoms associated to various alopecia; experiment: Therapeutic effect on alopecia: gel formulation applied to decalvant site; conditions: 1 μmol, 1 application/day, continued; male alopecia, right side
# Procedure: 5. Confirming Therapeutic Effect on Alopecia Either B ring gel formulation or BNP gel formulation was applied, and their effects on symptoms associated to various alopecia were observed (Table below). The changes in symptoms were determined based on physical sensory evaluation by the subject and our objective observation as physicians.
# [3] = tested on: skin condition of the subjects; experiment: Skin condition upon using bath agent comprising B ring; conditions: bath in 37 to 41° C. hot water with 0.01 μM, once a day for 14 days
# Procedure: 4.4 Observation on Skin Condition Upon Using Bath Agent Comprising B Ring
# Subjects were given bath in 37 to 41° C. hot water comprising B ring dissolved at 0.01 μM (100 ml of 20 μM B ring solution dissolved in 200 L hot water) once a day for 14 days, and skin condition of the subjects was compared to the case of hot water alone (Table 14). The changes in skin conditions were determined based on physical sensory evaluation by the subject and our objective observation as physicians.
# [4] = tested on: subjects suffering various dermatitis; experiment: B ring gel formulation versus gel base by two-sided application in dermatitis; conditions: right side B ring, left side gel base; atopic dermatitis or chronic eczema
# Source text: 3.2 Comparing B Ring Gel Formulation to Gel Base by Two-Sided Application For subjects suffering various dermatitis, either B ring gel formulation or the gel base was applied to the affected site, and changes in symptoms before and after the application were observed (Table below).
# [5] = tested on: normal subjects who had symptoms of scalp/hair; experiment: Scalp/hair condition upon application of B ring gel formulation
# Procedure: 4.3 Observation on scalp/hair condition upon application of B ring gel formulation. The B ring gel formulation was applied to normal subjects who had symptoms of scalp/hair, and changes in conditions of scalp and hair were observed (Table below). The changes in scalp/hair were determined based on physical sensory evaluation by the subject and our objective observation as physicians.
# [6] = tested on: normal subjects who had symptoms of roughened lips; experiment: Mucosal condition of roughened lips upon application of B ring gel formulation; conditions: 1 application
# Procedure: The B ring gel formulation was applied to normal subjects who had symptoms of roughened lips, and changes in mucosal condition were observed (Table below). The changes in mucosal conditions were determined based on physical sensory evaluation by the subject and our objective observation as physicians.
# [7] = tested on: skin, affected site; experiment: Cyclic peptides with amino acid replacement: effects on skin (formulations A to E = 3, 15, 30, 100, 500 μg/ml in purified water)
# Procedure: Next, cyclic peptides with some replaced amino acid were subjected to following examination in order to confirm their effect. The methods for preparing the above cyclic peptide and confirming amino acid sequence of the prepared peptide were same as the method for preparing the cyclic peptide as described above and Mass spectroscopy method.
# 9.2 Confirming Effects on Skin
# The obtained cyclic peptide was prepared in purified water at 3, 15, 30, 100 or 500 μg/ml and applied to affected site. Each of formulations A to E in the table indicates the concentration of the cyclic peptide at 3, 15, 30, 100 or 500 μg/ml, respectively. The absence of the effect upon the application of purified water without the peptide confirmed the effect was not a placebo effect.
# [8] = formulation C = 30 μg/ml cyclic peptide in purified water, applied to affected site, one line per subject (ID Q..), diagnosis and treatment as in the table line
# [9] = eczema, formulation C (30 μg/ml in purified water), once a day
# [10] = atopic dermatitis, formulation C (30 μg/ml in purified water), once a day
# [11] = chronic eczema, formulation C (30 μg/ml in purified water), once a day
# [12] = roughened skin, formulation C (30 μg/ml in purified water), once a day
substance,measurement,setting,value
Cys-Phe-Gly-Arg-Lys-Met-Asp-Arg-Ile-Ser-Ser-Ser-Ser-Gly-Leu-Gly-Cys (CFGRKMDRISSSSGLGC; disulfide 1-17; ends not checked) [B ring],"Skin-improving effect, summary","[1]; compared to site where BNP gel formulation had been applied, FIG. 1",has a skin moisturizing effect and is capable of improving skin texture
same,Post-application symptoms (skin condition),"[1]; concentration not printed (about 1 μM), right face, gel base on the left","1 min after application, skin tingling sensation"
same,Post-application symptoms (alopecia),[2],"7 weeks after application, hair became elastic and formulation exhibited more remarkable hair-"
same,Changes in subjective symptoms,[3],Remission of itch and pain; also recorded: Relief of pain; also recorded: Itches after bath was remitted
same,Post-application symptoms,[3],"ameliorating effect on miliaria, cracked or chapped skin; also recorded: Remission of desiccatinn; also recorded: Remission of flare and milaria; also recorded: Cracks gradually became; also recorded: Gradual remission of erythema"
same,Post-application symptoms,[4],"Flare remitted soon after application. After; also recorded: Flare started to fade soon after application,; also recorded: Flare remitted soon after application,; also recorded: Flare and pigmentation removed 2.5 min after"
same,Post-application symptoms (scalp/hair),"[5]; 1 μmol, 1 application/day (5 days, 3 weeks or continued), daily for 3 weeks","Hair growth was stimulated, and an increase in hair volume"
same,Post-application symptoms (scalp/hair),"[5]; 1 μmol, 1 application/day (5 days, 3 weeks or continued), daily for 5 days","A decrease in falling hair was observed, showing an effect"
same,Post-application symptoms (scalp/hair),"[5]; 1 μmol, 1 application/day (5 days, 3 weeks or continued), daily, continued post partum","growth was stimulated, improving thinning of hair."
same,Post-application symptoms (scalp/hair),"[5]; 2 μmol, 1 application","After 2 min, itches were removed, scalp seborrhea and; also recorded: After 1 min. itches were removed. After 2 min, scalp; also recorded: After 2 min, itches were removed, scalp seborrhea was improved"
same,"Post-application symptoms (lips, mucosal condition)",[6]; 0.5 μmol,"3 min after application, lips became moisturized."
same,"Post-application symptoms (lips, mucosal condition)",[6]; 1 μmol,"2 min after application, cracks on mouth corner were remitted and Skin became moisturized soon after application. After 2 min,"
same,"Post-application symptoms (lips, mucosal condition)",[6]; 2 μmol,"After 2 min, lips were full and soft, and wrinkles were less; also recorded: After 2 min, lips were full, soft and moisturized, and wrinkles"
SEQ ID NO 16 (CFVRKMDRISSSSGLGC; disulfide 1-17),Diagnostic impression on skin after application,[7]; [8],"After 3 minutes, erythema was remitted."
SEQ ID NO 18 (CFGHKMDRISSSSGLGC; disulfide 1-17),Diagnostic impression on skin after application,[7]; [8],"After 2 minutes, redness was remitted."
SEQ ID NO 26 (CFGRKMDRISSVSGLGC; disulfide 1-17),Diagnostic impression on skin after application,[7]; [8],"After 2 minutes, remitted."
SEQ ID NO 39 (CFSRKMDRISSSSGLGC; disulfide 1-17),Diagnostic impression on skin after application,[7]; [8],"After 3 minutes, nodes were flattened."
SEQ ID NO 42 (CFGRKMDRISSASGLGC; disulfide 1-17),Diagnostic impression on skin after application,"[7]; acne, formulation C (30 μg/ml in purified water), once a day","After 1 minute, redness was remitted."
same,Itches after application,"[7]; atopic dermatitis, formulation B (15 μg/ml in purified water), once a day",Iches were eliminated
same,Diagnostic impression on skin after application,[7]; [9],"After 3 minutes, erythema and dry skin"
SEQ ID NO 43 (CFGRKMDRISSSTGLGC; disulfide 1-17),Diagnostic impression on skin after application,[7]; [10],"After 2 minutes, no discomfort, felt"
same,Itches after application,[7]; [10],"After 3 minutes,"
same,Diagnostic impression on skin after application,[7]; [9],"After 1 minute, redness and infiltration"
same,Itches after application,[7]; [9],Iches were eliminated
same,Diagnostic impression on skin after application,"[7]; rosacae/acne, formulation C (30 μg/ml in purified water), once a day","After 7 minutes, acne was reduce and"
same,Diagnostic impression on skin after application,"[7]; roughened lips, formulation C (30 μg/ml in purified water), once a day","1 minute after application, dry skin"
same,Diagnostic impression on skin after application,"[7]; roughened skin, formulation B (15 μg/ml in purified water), once a day","After 3 minutes, redness and dry skin"
SEQ ID NO 44 (CFGRKMDRISSSAGLGC; disulfide 1-17),Diagnostic impression on skin after application,[7]; [9],"After 1 minute, erythema and infiltration"
same,Itches after application,[7]; [9],Iches were remitted
same,Diagnostic impression on skin after application,"[7]; healthy skin, formulation B (15 μg/ml in purified water), once a day","Skin got moisturized promptly, wrinkles"
SEQ ID NO 47 (CFSRKMDRISSSTGLGC; disulfide 1-17),Diagnostic impression on skin after application,[7]; [11],"Immediately after application, erythema"
SEQ ID NO 49 (CFSRKMDRISSSSGLAC; disulfide 1-17),Diagnostic impression on skin after application,[7]; [11],"Immediately after application, erythema"
SEQ ID NO 53 (CFGRRMDRISSSSGLAC; disulfide 1-17),Diagnostic impression on skin after application,[7]; [9],"After 1 minute, erythema and infiltration"
SEQ ID NO 58 (CFGRKMDRISSSSGIAC; disulfide 1-17),Diagnostic impression on skin after application,[7]; [9],"After 2 minutes, erythema, scales,"
SEQ ID NO 60 (CFSRRMDRISSSTGLGC; disulfide 1-17),Diagnostic impression on skin after application,[7]; [11],"Immediately after application, erythema"
SEQ ID NO 61 (CFSRRMDRISSSSGIGC; disulfide 1-17),Diagnostic impression on skin after application,"[7]; chronic, formulation C (30 μg/ml in purified water), once a day","Immediately after application, erythema"
SEQ ID NO 63 (CFSRKMDRISSTSGIGC; disulfide 1-17),Diagnostic impression on skin after application,"[7]; eczema, formulation B (15 μg/ml in purified water), once a day","After 3 minutes, erythema and scales"
SEQ ID NO 64 (CFSRKMDRISSSTGIGC; disulfide 1-17),Diagnostic impression on skin after application,[7]; [11],"Immediately after application, erythema"
SEQ ID NO 65 (CFSRKMDRISSSTGLAC; disulfide 1-17),Diagnostic impression on skin after application,[7]; [12],"After 1 minute, skin got moisturized and"
SEQ ID NO 68 (CFGRRMDRISSTSGLAC; disulfide 1-17),Diagnostic impression on skin after application,[7]; [11],"Immediately after application, erythema"
SEQ ID NO 69 (CFGRRMDRISSSTGIGC; disulfide 1-17),Diagnostic impression on skin after application,[7]; [9],"After 2 minutes, erythema, scales,"
SEQ ID NO 70 (CFGRRMDRISSSTGLAC; disulfide 1-17),Diagnostic impression on skin after application,[7]; [11],"immediately after application, erythema"
same,Diagnostic impression on skin after application,[7]; [12],Redness vanished in 30 seconds. After 1
SEQ ID NO 72 (CFSRRMDRISSTSGLAC; disulfide 1-17),Diagnostic impression on skin after application,[7]; [11],"Immediately after application, erythema,"
SEQ ID NO 73 (CFSRRMDRISSSTGIGC; disulfide 1-17),Diagnostic impression on skin after application,[7]; [11],"Immdediately after application, erythema"
SEQ ID NO 74 (CFSRRMDRISSSTGLAC; disulfide 1-17),Diagnostic impression on skin after application,"[7]; chronic eczema, formulation D (100 μg/ml in purified water), once a day",Iches were eliminated immediately after
same,Diagnostic impression on skin after application,[7]; [12],"After 1 minute, rawness and hot flash"
SEQ ID NO 75 (CFSRRMDRISSSSGIAC; disulfide 1-17),Diagnostic impression on skin after application,[7]; [9],"After 2 minutes, erythema, scalesm"
"Ser-Pro-Lys-Met-Val-Gln-Gly-Ser-Gly-Cys-Phe-Gly-Arg-Lys-Met-Asp-Arg-Ile-Ser-Ser-Ser-Ser-Gly-Le u-Gly-Cys-Lys-Val-Leu-Arg-Arg-His [BNP, reference compound]",Changes in subjective symptoms,[3],No subjective remission of skin
same,Post-application symptoms,[3],No remission of skin desiccation

# From patent US12065512B2, “Cyclic peptide and a medicament, external preparation and cosmetic comprising said cyclic peptide” (Igisu Co., Ltd., priority 2015, dated 2024)
